Laboratory results reported in patent US20240033244A1, “COMPOSITIONS AND METHODS FOR INHIBITING YTHDF1” (SHANGHAI INSTITUTE OF MATERIA MEDICA, CHINESE ACADEMY OF …, priority 2020, published 2024).

Experiments:
[1] = test system: tumor infiltrating T cells; assay: Flow cytometry of exhaustion markers on tumor infiltrating T cells; format: in vivo, mouse; conditions: 14 days after tumor inoculation
Method: For flow cytometry analysis and DCs sorting, tumors, draining lymph nodes were gathered from mice and digested with 100 U/mL collagenase IV and 20 μg/mL DNase I at 37° C. for 40 min. Digestion was stopped by FACS buffer (PBS contains 2% FBS and 1 mM EDTA) and samples were filtered through 70-μm cell strainer. Samples were stained by specific antibodies in FACS buffer on ice for 30 min. Antibody information was described in Table 1 below. All samples were washed with FACS buffer after staining, cells were analyzed on BD Fortessa and sorted by AriaIII.
In addition, terminally exhausted T cells (PD-1 and Tim-3 double positive cells) were assessed 14 days after tumor inoculation with SAA treatment, and it was observed that the frequency of these tumor infiltrating terminally exhausted T cells (PD-1^+Tim-3^+) decreased in SAA treated mice (FIG. 18b), confirming the enhanced anti-tumor activity.

His-YTHDF1 (361-559) = molecular target: T1, His-YTHDF1 (361-559) (Homo sapiens, UniProt Q9BYJ9); assay: AlphaScreen-based assay, m6A-containing mRNA binding to YTHDF1; conditions: read-out: IC50, blocking binding between m6A and YTHDF1
T1 construct: made in house; host or cells: E. coli BL21 (DE3)
T1 sequence (Q9BYJ9 with tags, fused parts or gaps): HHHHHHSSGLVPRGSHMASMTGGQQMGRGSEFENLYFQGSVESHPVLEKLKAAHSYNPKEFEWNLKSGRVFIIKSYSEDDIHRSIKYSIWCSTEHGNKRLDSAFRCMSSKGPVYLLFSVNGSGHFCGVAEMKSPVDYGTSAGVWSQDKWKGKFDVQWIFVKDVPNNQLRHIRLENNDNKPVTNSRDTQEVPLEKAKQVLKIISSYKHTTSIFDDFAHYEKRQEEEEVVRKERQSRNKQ
Method: Then 10 nM biotinylated m^6A-containing mRNA (5′-biotin-[…] (m^6A) CUGUG-3′) (SEQ ID NO: 15) was added to bind with YTHDF1 (361-559), and unbiotinylated m^6A-containing mRNA was used as the positive control. Before Alpha signal detection, streptavidin donor beads and anti-His acceptor beads were added into the white assay plate in subdued light (OptiPlate™-384, PerkinElmer) and incubated at 4° C. for 1 hour to ensure sufficient binding between biotin tag and streptavidin donor beads, as well as that between His tag and anti-His acceptor beads. Then the Alpha signal was detected on Envision Readers (PerkinElmer).

YTHDF1 in 293T cells = molecular target: T2, YTHDF1 in 293T cells (Homo sapiens, UniProt Q9BYJ9); assay: Cellular thermal shift assay (CETSA) in 293T cells; format: cell-based; conditions: 100 μM SAA for 4 hours
T2 construct: endogenous in cells; host or cells: 293T (ATCC)
Method: The cellular thermal shift assay (CETSA) was conducted according to the protocol reported previously. 293T cell line (ATCC) used in the assay was cultured at 37° C., 5% CO2, in DMEM culture medium (Life Technologies) containing 10% fetal calf serum (Gibco, U.S.A.), 1% penicillin/streptomycin (Life Technologies). 293T cells were collected after incubated with PBS buffer as control or 100 μM SAA for 4 hours and equally divided into twelve parts, respectively. The divided parts were heated under series of temperature range from 39° C. to 59° C. for 3 minutes and cooled at 4° C. for 3 minutes immediately. Then, the cells were lysed via freeze-thawing with liquid nitrogen and the protein samples were collected by centrifugation. Though adding in SDS loading and boiling at 99° C. for 5 minutes, the samples were prepared for western blot detection. In the western blot assays, GAPDH was used as the internal reference. And the quantitative analysis of the results of the assay was performed via ImageJ software.
Further, the binding of SAA to YTHDF1 in cells was also examined. Cellular thermal shift (CETSA) assay was performed with 293T cell line, which was collected for heating at temperatures as indicated. After incubating the cells with 100 μM SAA for 4 hours, YTHDF1 protein in the incubated 293T cells were examined with western blot. […]

T2 sequence (Q9BYJ9 whole entry): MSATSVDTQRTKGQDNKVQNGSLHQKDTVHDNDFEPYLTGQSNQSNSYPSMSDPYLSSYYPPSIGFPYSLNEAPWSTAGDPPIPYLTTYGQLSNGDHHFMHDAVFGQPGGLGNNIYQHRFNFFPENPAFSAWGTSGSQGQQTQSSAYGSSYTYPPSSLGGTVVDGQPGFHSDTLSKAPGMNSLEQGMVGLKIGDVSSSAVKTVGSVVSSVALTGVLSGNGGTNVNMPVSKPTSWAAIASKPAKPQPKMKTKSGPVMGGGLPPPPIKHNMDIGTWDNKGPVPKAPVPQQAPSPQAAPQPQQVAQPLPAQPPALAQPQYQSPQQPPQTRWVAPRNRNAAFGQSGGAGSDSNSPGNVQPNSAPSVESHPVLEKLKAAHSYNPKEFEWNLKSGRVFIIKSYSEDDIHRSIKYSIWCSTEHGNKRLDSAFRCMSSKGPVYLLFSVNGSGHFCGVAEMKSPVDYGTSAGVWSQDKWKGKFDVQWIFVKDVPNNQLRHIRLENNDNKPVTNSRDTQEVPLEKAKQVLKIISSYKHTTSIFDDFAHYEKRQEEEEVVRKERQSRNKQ

IC50 (His-YTHDF1 (361-559)): 860 ± 60 nM | CETSA curve shift to the right (YTHDF1 stability) (YTHDF1 in 293T cells): about 2 degrees
Compound: O=C(/C=C/c1ccc(O)c(O)c1/C=C/c1ccc(O)c(O)c1)O[C@H](Cc1ccc(O)c(O)c1)C(=O)O [SAA, Salvianolic Acid A]
CXCR5 expression of PD-1low population [1]: much more CXCR5 than DMSO group | frequency of tumor infiltrating terminally exhausted T cells (PD-1+Tim-3+) [1]: decreased
